B1: NG140: anti-HER3 mAb; light chain CDRs SEQ ID NOs: 13-15, heavy chain CDRs 16-18 (antibody, V domains shown)
VH: QVQLKESGPGLVKPSQSLSLTCSVTGYSITSGYYWNWIRQFPGNKLEWMGSIYYDGSNNYNPSLKNRISVTRDTSKNQFFLKLNSVTTEDTATYYCARDYDVGYAMDYWGQGASVTVSS
VL: DIVLTQSSSYLSVSLGGRVTITCKASDHINNWLAWYQQKPGNAPRLLISGATSLETGVPSRFSGSGSGKDYTLSITSLQTEDVATYYCQQYWSIPWTFGGGTKLEIK
modifications: VH chain of NG140 polypeptide; VL chain of NG140 polypeptide

How the values were obtained:
PC9ER-AZDR cells = assay: MTT assay on PC9ER-AZDR cells; settings: 72 hours treatment
EGFR phosphorylation = assay: Western blot of EGFR phosphorylation in PC9ER-AZDR cells; format: cell-based, human; settings: 6 hours, 1 μM
Description: Cells were grown under specified conditions or treated as indicated. Following the cells were washed twice with cold PBS and scraped into lysis buffer [50 mM Hepes (pH 7.5), 10% glycerol, 150 mM NaCl, 1% Triton X-100, 1 mM EDTA, 1 mM EGTA, 10 mM NaF, 0.1 mM Na3VO4, and a complete protease inhibitor cocktail]. Thereafter, lysates were centrifuged at 14,000 g for 15 minutes at 4° C. The supernatant was used for subsequent procedures. Western blot analyses were conducted following protein separation using gel electrophoresis and transfer to nitrocellulose membranes. Immunoblotting was performed according to the antibody manufacturers' recommendation. Blocking was done using 5% milk in PBST (0.5% Tween20 Sigma Cat#P9416). Antibody binding to membrane blots was detected using horseradish peroxidase-secondary antibodies (Jackson ImmunoResearch Laboratories), followed by treatment with ECL Western blotting detection reagents (GE Healthcare).

H1975 NSCLC cells = assay: H1975 NSCLC tumor growth in CD1-nu/nu mice; format: in vivo
IgB3 = target: T1, IgB3 (Homo sapiens, UniProt P21860); assay: Antibody competition assay with Lumi4(Tb)-labeled NG33 on IgB3-coated plates; format: binding; settings: NG33-K2 1 nM
T1 construct: To produce IgB3 (recombinant HER3 extracellular domain fused to a human IgG Fc domain); made in house
T1 sequence (P21860 20-643 limits assumed): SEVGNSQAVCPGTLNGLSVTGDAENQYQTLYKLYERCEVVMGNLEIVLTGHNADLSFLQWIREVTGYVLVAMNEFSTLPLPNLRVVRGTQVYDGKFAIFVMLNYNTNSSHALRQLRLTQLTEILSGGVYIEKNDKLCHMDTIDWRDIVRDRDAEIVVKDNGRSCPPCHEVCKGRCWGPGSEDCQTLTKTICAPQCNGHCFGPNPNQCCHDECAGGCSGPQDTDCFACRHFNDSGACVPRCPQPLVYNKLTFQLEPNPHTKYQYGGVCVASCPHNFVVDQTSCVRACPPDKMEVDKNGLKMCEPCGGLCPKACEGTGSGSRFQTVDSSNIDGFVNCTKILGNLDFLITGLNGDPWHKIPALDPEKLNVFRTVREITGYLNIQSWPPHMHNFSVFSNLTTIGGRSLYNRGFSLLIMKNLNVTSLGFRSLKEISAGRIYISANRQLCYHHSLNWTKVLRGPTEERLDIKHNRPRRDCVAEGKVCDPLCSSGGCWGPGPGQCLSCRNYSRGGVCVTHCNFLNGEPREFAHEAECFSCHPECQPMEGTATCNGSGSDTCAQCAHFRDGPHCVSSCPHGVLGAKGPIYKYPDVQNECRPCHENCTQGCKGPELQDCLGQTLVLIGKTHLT
T1 sequence (P01857 99-330 partner limits assumed): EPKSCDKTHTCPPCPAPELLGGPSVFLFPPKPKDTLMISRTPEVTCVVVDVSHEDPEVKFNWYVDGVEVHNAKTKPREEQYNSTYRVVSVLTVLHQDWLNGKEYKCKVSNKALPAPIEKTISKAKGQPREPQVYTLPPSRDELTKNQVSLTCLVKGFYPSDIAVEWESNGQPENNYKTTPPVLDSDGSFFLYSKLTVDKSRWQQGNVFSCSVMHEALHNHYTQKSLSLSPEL
Description: FIGS. 12A-D show a combination of two mAbs directed to two different epitopes of HER3. (FIGS. 12A and 12B) The antibodies NG33 and XC252 were labeled with the fluorescent dye Lumi4® Tb Cryptate (K2). 96 well-plate were coated with IgB3 (1.5 μg/ml), blocked with PBS-BSA and incubated for 1 h with various concentrations of mAbs under gentle shaking at RT. The labeled mAb, NG33-K2 (FIG. 12A) or XC252-K2 (FIG. 12B), was then added at 1 nM final concentration. After ah incubation, the plate was washed 4 times with KREBS buffer, and the fluorescence intensity at 610 nm was measured using a fluorescence microplate reader. (FIG. 12C) The various anti-HER3 mAb combinations were studied for their ability to trigger HER3 degradation using N87 cells. Cells were treated for 2 h at 37° C. with mAb (10 μg/ml). After cell lysis and protein extraction, the samples were subjected to immunoblotting with the indicated antibodies. (FIG. 12D) The combination's capacity to modulate NRG-induced phosphorylation of HER3, AKT and ERK was evaluated using N87 cells. After 20 min treatment at 37° C. with 10 μg/ml of mAbs, NRG (20 ng/ml) was added to the cells for 10 min. The cells were then lysed, and equal quantities of lysate protein were electrophoresed before immunoblotting, as indicated.
Agent labeling was performed by Cisbio. […] Following 1 h incubation, the plate was washed 4 times with KREBS buffer (146 mM NaCl, 4 mM KCl, 0.5 mM MgCl2, 1 mM CaCl2, 10 mM Hepes, 1 gr/L glucose, and 1 mg/mL albumin), and the fluorescent intensity (excitation: 488 nm, emission: 610 nm) was measured using a fluorescence microplate reader. […] Finally, following two washes with KREBS buffer, the fluorescence intensity was measured at 670 nm (excitation: 620 nm).
Combinations of antibodies directed against two different epitopes of the same receptor, as has been previously shown, can improve the effect of treatment with a single mAb (28, 29). […] First, it was determined which antibody from the anti-HER3 series targets an epitope distinct from that targeted by NG33. […]

BxPC3 cells = assay: MTT assay on BxPC3 cells in culture; format: cell-based, human; settings: 3 days
Description: (§1) FIGS. 15A-F show the effects of a mixture of two anti HER3 mAbs, in vivo on BxPC3 cell xenografts and in vitro. (FIGS. 15A-C) CD1-Nude mice were grafted subcutaneously with 5×10^6 BxPC3 cells. Once tumors became palpable (after 13 days), the mice were randomized into group of 8 mice and treated every 3 days for 5 weeks. The control group (CTRL) was injected intra-peritoneally (IP) with 200 μl PBS. The other groups were treated with mAb alone or in combination at a final concentration of 0.2 mg/0.2 ml of PBS per mouse. The mice were weighted once a week and the tumors measured twice a week. An average tumor size of 7-8 mice (+/−SEM) is shown. (FIGS. 15D-F) Proliferation assays using MTT were performed on BxPC-3. 5,000 cells per well were plated the day before and treated for 72 h with the indicated mAb treatment. Decreasing concentrations of the indicated mAb (alone or in combination) were used in medium supplemented with 1% serum and NRG (10 ng/ml).
To determine if the combination of NG33 mAb with another anti-HER3 mAb is more efficient than using NG33 alone, the combination of two mAbs, NG33 and XC252, was tested on several tumor cell lines, which were grafted subcutaneously (gastric: N87, lung: A549, pancreatic: BxPC3, ovarian: OVCAR-5, and head and neck: CAL-27, FIG. 14). This pilot was performed with 3 mice per group. Mice were injected twice a week with the mAb combination or with PBS. The best responder of these in vivo models for solid tumor growth was the BxPC3 xenograft model. […] This experiment was performed on 7 to 8 mice per group. The mice were treated every 3 days with PBS, each mAb alone or a mAb combination, for 5 weeks (0.2 mg/injection). […] In order to reinforce the in vivo data, the cytotoxicity of each mAb alone or in combination with NG33 was tested on BxPC3 cells in culture (FIGS. 15D, 15E and 15F). Decreasing concentrations of mAb were used and a MTT assay was performed following 3 days of treatment. […] On the contrary, XC252 used alone has a […] cytotoxic impact on BxPC3 proliferation leading to 60% inhibition of cell survival at high concentration.

BxPC3 xenografts = assay: BxPC3 cell xenografts in CD1-Nude mice; format: in vivo; settings: 0.2 mg/injection IP every 3 days for 5 weeks, 7 to 8 mice per group
Description: as §1
All animal studies were approved by the Weizmann Institute's Review Board (IRB). Tumor bearing CD1/nude mice were randomized in groups of five-ten mice and injected subcutaneously in the right flank with cancer cells (3-5×10^6 per mouse depending on the cell line). mAbs were injected intraperitoneally at a total dose of 200 μg per mouse per injection, twice a week, for 5 weeks or until tumors reached the size of 1,500 mm^3. In experiments evaluating the effect of the TKI AZD-9291, Vehicle (Vehicle formulation: HPMC 0.5% (sigma Cat#56340), Tween80 0.1% (Sigma Cat #P8074 in water), Erlotinib at a dose of 50 mg/kg per injection, or AZD9291 at a dose of 1 or 5 mg/kg per injection were injected daily intraperitoneally. In one experiment (FIG. 16), mice were treated daily with Erlotinib at a dose of 50 mg/kg per injection until tumors reached a size of 800 mm^3 and only then were treated as indicated. Tumor volume and body weight were evaluated twice and once per week, respectively. Mice were euthanized when tumor size reached 1,500 mm^3. […] Survival of the tumor bearing mice was recorded and depicted by Kaplan-Meier analysis. […]

Molecule | survival / sensitivity of PC9ER-AZDR cells (MTT) (PC9ER-AZDR cells) | EGFR phosphorylation in PC9ER-AZDR cells on exposure (EGFR phosphorylation) | inhibition of H1975 tumor growth (H1975 NSCLC cells; AZD9291 5 mg/kg/day or triple mAbs) | body weight gain (H1975 NSCLC cells; H1975 tumor-bearing mice, AZD9291 5 mg/kg/day) | effect on binding of Lumi4(Tb)-labeled NG33 to IgB3 (IgB3) | effect on BxPC3 proliferation/survival (in words) (BxPC3 cells) | effect on BxPC3 xenograft tumor growth (BxPC3 xenografts)
C=CC(=O)Nc1cc(Nc2nccc(-c3cn(C)c4ccccc34)n2)c(OC)cc1N(C)CCN(C)C [AZD-9291] | lost sensitivity to AZD-9291 | EGFR remained phosphorylated | comparably inhibited growth of the erlotinib-resistant human NSCLC | slightly inhibited body weight gain compared with the triple mAb combination | – | – | –
B1 | – | – | – | – | did not alter NG33 binding | did not interfere with cell proliferation | no statistically significant ability to decrease tumor growth

Source: patent publication US10526416B2, “Anti-HER3 antibodies and uses of same” (Yeda Research and Development Co. Ltd., priority 2014, dated 2020)
